Data on three compounds can be found in patent publication US12084415B2, “Biomolecule-polymer-pharmaceutical agent conjugates for delivering the pharmaceutical agent” (Massachusetts Institute of Technology, priority 2021, dated 2024).

In this test the test system is BT474 xenograft tumor. Briefly: Antitumor efficacy in BT474 xenograft tumor model. Particulars: for tumor volume at day 30: 3 doses.
[1] abbreviates: PROTAC (ARV771) payload, 3 doses once a week.

Method: The antitumor efficacy was monitored thorough the measurement of tumor volume size.
We used the ABC platform for antibody targeted delivery of PROTAC to tumors for cancer therapy. We chose ARV771 as the payload. We used PROTAC-ABC (ABC_ARV771) to perform in vivo anti-cancer study. The HER2 overexpressed BT474 xenograft mice model was also used for this study. 6 different treatments were performed on mice bearing ˜50 mm^3 volume tumor. 3 doses for treatment were performed once a week.

Take ado-trastuzumab emtansine [ADC]: where the note is “one dose injection, comparison with Kadcyla”, the tumor volume result is recorded as “good anticancer efficiency”. Consider `Cc1ncsc1-c1ccc([C@H](C)NC(=O)[C@@H]2C[C@@H](O)CN2C(=O)[C@@H](NC(=O)COCCCOCCNC(=O)C[C@@H]2N=C(c3ccc(Cl)cc3)c3c(sc(C)c3C)-n3c(C)nnc32)C(C)(C)C)cc1` [ARV771], for which the “tumor volume at day 30” value (PROTAC (ARV771) payload) is recorded as “no therapeutic effects”. Moreover, the tumor volume entry under setting [1] is listed as “little therapeutic effects”. Turning to `Cc1sc2c(c1C)C(c1ccc(Cl)cc1)=N[C@@H](CC(=O)Nc1ccc(OCCOCCOCCOCCNc3cccc4c3C(=O)N(C3CCC(=O)NC3=O)C4=O)cc1)c1nnc(C)n1-2` (some centres unmarked) [ARV825], the “tumor volume at day 30” value (PROTAC (ARV771) payload) is “no therapeutic effects”. Besides, the tumor volume entry under setting [1] is given as “little therapeutic effects”.
